From patent publication US9006284B2, “Combination therapy for treating proliferative diseases” (Bionomics Limited, priority 2009, dated 2015)

What was measured:
[1] = system: Human umbilical vein endothelial cells (HUVECs), tumour type activated endothelial cells; test: Proliferation assay, activated endothelium (Tum); type: cell-based; conditions: HUVEC, given as ranges
Description: (§1) Proliferation Assay—activated endothelium: Human umbilical vein endothelial cells (CC-2519, Clonetics) were plated at 2500 cells/well in EGM2 (CC-3162, Clonetics) in a 96 well plate in triplicate. Cells were cultured overnight at 37° C. 5% CO2. Medium was subsequently replaced with fresh medium including the compound or negative control. Cells were cultured for a period of 48 hrs. An MTT assay was performed to measure changes in cell numbers. Briefly, 20 μl of MTT reagent was added to cells containing 100 μl of EGM2 and incubated at 37° C. for 2 hours. Absorbance was measured at 492 nm.

[2] = system: Human umbilical vein endothelial cells (HUVECs), normal quiescent type endothelial cells; test: Proliferation assay, quiescent endothelium (Norm); type: cell-based; conditions: HUVEC, given as ranges
Description: as §1, with “Assay—quiescent” for “Assay—activated”, “15000” for “2500”, “EBM2 (CC-3156, Clonetics)+0.5% FBS (CC-4101A, Clonetics)+GA-1000 (CC-4381A,” for “EGM2 (CC-3162,”, “EBM2+0.5% FBS” for “EGM2”

[3] = system: MCF-7; test: Growth inhibition (SRB or cell counting), MCF-7; type: cell-based; conditions: Homo sapiens, MCF7, concentration required to inhibit net cell growth by 50%, read-out: Cancer cell line: IC50
[4] = system: tumor endothelial cells (activated) and normal endothelial cells (quiescent); test: Selectivity between activated and quiescent endothelial cells; type: cell-based
Description: as §1, with “Assay—quiescent” for “Assay—activated”, “15000” for “2500”, “EBM2 (CC-3156, Clonetics)+0.5% FBS (CC-4101A, Clonetics)+GA-1000 (CC-4381A,” for “EGM2 (CC-3162,”, “EBM2+0.5% FBS” for “EGM2”
as §1

[5] = system: MDA-MB-231; test: Growth inhibition (SRB or cell counting), MDA-MB-231; type: cell-based; conditions: Homo sapiens; MDA-MB-231 (footnote b); given as ranges; read-out: Cancer cell line: IC50
[6] = system: MDA-MB-231 solid orthotopic tumors; test: Tumor growth inhibition, MDA-MB-231 orthotopic tumors; type: in vivo, Balb/c nu/nu mice; conditions: 40 mg/kg i.v., two cycles, up to 72 days; vs vehicle p<0.001 from day 4 to Day 70
Source text: Animals were i.v. dosed with a total of two cycles of Example 2 treatment. Each cycle was dosing on […] followed by a three week no-dosing period. Tumor growth represented as a ratio to initial tumor volume is shown over a total of 72-days.
Tumor growth as well as animal health were monitored for up to 72 days post-day 1 of treatment. […] Significant differences in tumor growth between Example 2 treated (n=64) and vehicle treated (n=20) animals were observed as early as day 4 (p<0.001; unpaired t-test; Prism® analysis) through to Day 70.

[7] = system: Caki-1 xenograft tumors; test: Immunohistochemistry analysis of Caki-1 renal xenografts; type: in vivo, BALB/c nu/nu mice; conditions: single i.v. 32 mg/kg
Source text: These effects result in some reduction of tumor growth in animal models. Tumor recovery from the vascular damage caused by VDA action occurs within 48 hrs post-treatment. Furthermore, vascular disruption spares the outer cellular rim of a tumor mass that appears to be supported by normal vessels that surround the tumor capsule and remain unaffected by VDA action. It is reasonable to hypothesise that his viable rim subsequently supports tumor revascularisation and recovery from the action of the VDA agent. We hypothesised that the recovery of the tumors from the effects of the VDA action is driven by molecular pathways that support cancer cell survival and induction of angiogenesis. We undertook a number of histological analyses to assess the damage caused by Example 2 on the integrity of components of the tumor microenvironment and obtain information of upregulation of proteins that are likely to be involved in tumor recovery. Our analyses included evaluation of the expression of VEGF, phosphorylated mTOR, Hypoxia inducible factor-1-alpha (Hif-1α), and Hypoxia inducible factor-2-alpha (Hif-2α), the level of apoptosis, integrity of endothelial cells and the basement membrane protein laminin.
Female BALB/c nu/nu mice at 6 to 8 weeks were injected s.c. with the human cancer cell line Caki-1 representing renal cancer. Cells were resuspended in Dulbecco's PBS (Sigma-Aldrich) and 5×10^6 cells were injected s.c. Tumors were grown to an average size of 700 mm^3 prior to treatment. Example 2 treatment consisted of a single i.v. injection at dose level of 32 mg/kg. Saline treatment was included as a vehicle control. Animals were euthanized and tumors were excised for histologic examination 24 hours post dosing. Cryosections of tumors were prepared and probed with phosphorylated mTOR (ser 2448), Hif-1α, Hif-2α and CD31 specific antibodies. Antibody staining was visualized using 3,3′-Diaminobenzidine (brown staining) and sections were conterstained with Myers hematoxylin.

[8] = around the viable rim region, 24 hours

Row | Structure (SMILES) | IC50 [1] [nM] | IC50 [2] [nM] | further results
1 | COc1cc(C(=O)c2c(CN(C)C)oc3c(O)c(OC)ccc23)cc(OC)c1OC [Example 34] | 1 to 10 | 1 to 10 | –
2 | C#Cc1oc2c(O)c(OC)ccc2c1C(=O)c1cc(OC)c(OC)c(OC)c1 [Example 12] | 1 to 10 | 1 to 10 | IC50 [3]: 3.3 nM
3 | COc1ccc2c(C(=O)c3cc(OC)c(OC)c(OC)c3)c(C)sc2c1 [Example 41] | 1 to 10 | 1 to 10 | –
4 | COc1ccc(/C=C\c2cc(OC)c(OC)c(OC)c2)cc1OP(=O)(O)O [Example 4] | 1 to 10 | 1 to 10 | IC50 [3]: 5 nM
5 | CCCCc1oc2c(O)c(OC)ccc2c1C(=O)c1cc(OC)c(OC)c(OC)c1 [Example 32] | 1 to 10 | 1 to 10 | –
6 | COc1ccc(/C=C\c2cc(OC)c(OC)c(OC)c2)cc1O [Combretastatin A4] | – | – | Selectivity activated vs quiescent endothelial cells [4]: equally potent against quiescent and activated endothelial cells
7 | COc1cc(C(=O)c2c(C)[nH]c3c(O)c(OC)ccc23)cc(OC)c1OC [Example 39] | 0.01 to 0.1 | 0.1 to 1 | –
8 | COc1ccc2c(C(=O)c3cc(OC)c(OC)c(OC)c3)coc2c1 [Example 5] | 10 to 100 | 10 to 100 | IC50 [3]: 55 nM
9 | COc1cc(C(=O)c2c(N)oc3c(O)c(OC)ccc23)cc(OC)c1OC [Example 25] | 1 to 10 | 1 to 10 | IC50 [5]: 0.1 to 1 nM
10 | COc1cc(C(=O)c2c(C)oc3c(OP(=O)([O-])[O-])c(OC)ccc23)cc(OC)c1OC.[Na+].[Na+] [Example 2, Disodium 6-methoxy-2-methyl-3-(3,4,5-trimethoxybenzoyl)benzofuran-7-yl phosphate] | – | – | Tumor growth (ratio to initial tumor volume) [6]: tumor growth inhibition; Number of apoptotic cells within the tumor ([7]; 24-30 hrs after treatment): significant increase in the number of apoptotic cells; Staining of laminin (basement membrane integrity) ([7]; 24-30 hrs after treatment): considerable reduction in the staining; Staining with anti-human VEGF antibody ([7]; 24-30 hrs after treatment): dramatic increase in staining; Staining with endothelial cell marker CD31 ([7]; 24-30 hrs after treatment): decrease in staining; Expression of Hif-1α [7, 8]: Increased expression; Expression of Hif-2α [7, 8]: Increased expression; Expression of phosphorylated mTOR (ser 2448) [7, 8]: Increased expression
11 | COc1cc(C(=O)c2c(C#N)oc3c(O)c(OC)ccc23)cc(OC)c1OC [Example 23] | 1 to 10 | 1 to 10 | IC50 [5]: 0.1 to 1 nM
12 | CNc1oc2c(O)c(OC)ccc2c1C(=O)c1cc(OC)c(OC)c(OC)c1 [Example 10] | 1 to 10 | 0.1 to 1 | IC50 [3]: 3.5 nM
13 | COc1cc(C(=O)c2c(C)sc3c(O)c(OC)ccc23)cc(OC)c1OC [Example 42] | 0.1 to 1 | 1 to 10 | –
14 | CCc1oc2c(O)c(OC)ccc2c1C(=O)c1cc(OC)c(OC)c(OC)c1 [Example 33] | 0.1 to 1 | 0.1 to 1 | –
15 | COc1cc(C(=O)c2coc3c(N)c(OC)ccc23)cc(OC)c1OC [Example 19] | 1 to 10 | 1 to 10 | IC50 [5]: 1 to 10 nM
16 | COc1cc(C(=O)c2c(NCCS(N)(=O)=O)oc3c(O)c(OC)ccc23)cc(OC)c1OC [Example 45] | 1 to 10 | 1 to 10 | –
